# Measured values as given in PMC10291556 (Journal of Medicinal Chemistry, 2023).
# Key:
# [1] = system: DNA isolated from HeLa cells; assay: Pt associated with DNA isolated from treated HeLa cells; format: cell-based, human; conditions: 1 µM compound, 6 h, mean ± SD
# Excerpt: page 16: Table S1: […] concentration of tested compounds for 6 ha. […] Figure S19: A. Representative histograms obtained by flow cytometric analysis of calreticulin exposure in HeLa cells treated with indicated compounds. B. An example of gating DAPI negative population. Only DAPI-negative cells were taken for the evaluation.
# HeLa cells = assay: Cellular accumulation of platinum (ICP-MS); format: cell-based, human
# Protocol: Briefly, 3 × 10^6 cells were seeded in 100 mm culture dishes and grown overnight. The cells were exposed to the tested complexes at indicated concentrations for indicated periods. […] The pellets were digested using the microwave acid (HCl) digestion system (CEM Mars). The platinum quantity taken up by the cells was determined by inductively coupled plasma mass spectrometry (ICP–MS). All experiments were performed in triplicate.
# MRC-5 = assay: MTT assay in non-cancerous fibroblasts, 72 h; format: cell-based; conditions: non-cancerous human fibroblasts, 72 h incubation, mean ± SD
# Protocol: Cells were treated with the tested compounds in a final volume of 200 μL/well. […] Calbiochem, Darmstadt, Germany) was added, and the cells were incubated for an additional 2–4 h. The medium was removed, and the insoluble formazan product was dissolved in 100 μL/well DMSO. […] The read values were converted to the percentage of control. […] All experiments were made in triplicate.
# MDA-MB-231 = assay: MTT antiproliferative assay, 72 h; format: cell-based, human; conditions: MTT, 72 h incubation, mean ± SD; read-out: IC50 MDA-MB-231
# Protocol: (§1) Cells were treated with the tested compounds in a final volume of 200 μL/well. […] Calbiochem, Darmstadt, Germany) was added, and the cells were incubated for an additional 2–4 h. The medium was removed, and the insoluble formazan product was dissolved in 100 μL/well DMSO. The absorbance was read at 570 nm (vs 620 nm) using an Absorbance Reader (SUNRISE TECAN SCHOELLER). The read values were converted to the percentage of control. […] All experiments were made in triplicate.
# A2780cisR = assay: MTT antiproliferative assay, 72 h; format: cell-based, human; conditions: MTT, 72 h incubation, mean ± SD; read-out: IC50 A2780cisR
# Protocol: as §1
# HeLa = assay: MTT antiproliferative assay, 72 h; format: cell-based, human; conditions: MTT, 72 h incubation, mean ± SD; read-out: IC50 HeLa
# Protocol: as §1
# A2780 = assay: MTT antiproliferative assay, 72 h; format: cell-based, human; conditions: MTT, 72 h incubation, mean ± SD; read-out: IC50 A2780
# Protocol: as §1
# HCT-116 = assay: MTT antiproliferative assay, 72 h; format: cell-based, human; conditions: MTT, 72 h incubation, mean ± SD; read-out: IC50 HCT-116
# Protocol: as §1
# MCF-7 = assay: MTT antiproliferative assay, 72 h; format: cell-based, human; conditions: MTT, 72 h incubation, mean ± SD; read-out: IC50 MCF-7
# Protocol: as §1
smiles,measurement,setting,value
"N.N.[Cl][Pt][Cl] [cisplatin, reference compound]",amount of Pt associated with DNA,[1],2.8 ± 0.2 pg Pt/µg DNA
same,cellular uptake 0.1 μM/24 h,"HeLa cells; 0.1 μM complex, 24 h",0.3 ± 0.1 ng Pt/10^6 cells
same,cellular uptake 1 μM/6 h,"HeLa cells; 1 μM complex, 6 h",2.3 ± 0.3 ng Pt/10^6 cells
same,cellular uptake 10 μM/6 h,"HeLa cells; 10 μM complex, 6 h",10 ± 3 ng Pt/10^6 cells
same,IC50,MRC-5,7.3 ± 0.9 µM
same,IC50,MDA-MB-231,22 ± 2 µM
same,IC50,A2780cisR,20 ± 2 µM
same,IC50,HeLa,15 ± 3 µM
same,IC50,A2780,3.5 ± 0.6 µM
same,IC50,HCT-116,8 ± 1 µM
same,IC50,MCF-7,14 ± 3 µM
